Measurements from US20090306144A1, “PYRIDINE DERIVATIVES OF ALKYL OXINDOLES AS 5-HT7 RECEPTOR ACTIVE AGENTS” (priority 2004, published 2009).
Counter-ions that a name gives are not always drawn.

How the values were obtained:
5-HT7 receptor = target: T1, 5-HT7 receptor (Homo sapiens, UniProt P34969); assay: 5-HT7 receptor binding (3H-LSD, CHO cell culture); conditions: ligand 3H-LSD, non-specific binding clozapine (25 μM), read-out: Inhibition of 5-HT7 receptor binding, IC50
T1 construct: expressed in transfected cells; host or cells: CHO cell culture
Protocol: (§1) Human cloned receptors or frontal cortex preparations of male Wistar rats weighing 120-200 g were used for the experiments. The protein contents of membrane preparations were determined according to the method of Lowry (1951).
(§2) In the course of 5-HT7 receptor binding studies the applied tissue was CHO cell culture, the ligand was ^3H-LSD, and for the non-specific binding clozapine (25 μM) was used as ligand. In the serotonin uptake experiment cortex was used as tissue. As ligand tritiated serotonin, as non-specifically binding ligand fluoxetine (100 μM) was applied.
(§3) IC50 is the concentration where the difference between whole binding and non-specific binding in the presence of 10 μM serotonin creatinine sulfate is 50%. The compounds with an IC50 value smaller than 100 nmol were considered effective in this test.

5-HT uptake = target: T2, 5-HT uptake (Rattus norvegicus, UniProt P31652); assay: Serotonin uptake experiment (tritiated serotonin, cortex); format: biochemical; conditions: cortex tissue; ligand tritiated serotonin; non-specific ligand fluoxetine (100 μM); read-out: Inhibition of 5-HT uptake, IC50
T2 construct: In the serotonin uptake experiment cortex was used as tissue; from tissue; host or cells: frontal cortex of male Wistar rats
Protocol: as §1, §2, §3

T1 sequence (P34969 whole entry): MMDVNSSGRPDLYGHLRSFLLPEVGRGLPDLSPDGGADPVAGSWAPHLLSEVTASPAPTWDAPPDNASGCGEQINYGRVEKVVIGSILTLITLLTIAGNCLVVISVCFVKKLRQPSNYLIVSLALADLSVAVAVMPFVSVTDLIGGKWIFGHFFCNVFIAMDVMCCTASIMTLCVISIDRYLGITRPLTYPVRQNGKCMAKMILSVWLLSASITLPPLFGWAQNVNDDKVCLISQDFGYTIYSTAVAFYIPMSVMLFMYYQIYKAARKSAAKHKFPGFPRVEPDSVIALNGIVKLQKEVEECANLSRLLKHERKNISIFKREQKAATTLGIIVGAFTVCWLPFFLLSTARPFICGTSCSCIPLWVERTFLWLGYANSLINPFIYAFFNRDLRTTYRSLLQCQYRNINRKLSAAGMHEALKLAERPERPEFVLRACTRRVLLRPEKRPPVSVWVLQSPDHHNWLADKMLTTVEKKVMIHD
T2 sequence (P31652 whole entry): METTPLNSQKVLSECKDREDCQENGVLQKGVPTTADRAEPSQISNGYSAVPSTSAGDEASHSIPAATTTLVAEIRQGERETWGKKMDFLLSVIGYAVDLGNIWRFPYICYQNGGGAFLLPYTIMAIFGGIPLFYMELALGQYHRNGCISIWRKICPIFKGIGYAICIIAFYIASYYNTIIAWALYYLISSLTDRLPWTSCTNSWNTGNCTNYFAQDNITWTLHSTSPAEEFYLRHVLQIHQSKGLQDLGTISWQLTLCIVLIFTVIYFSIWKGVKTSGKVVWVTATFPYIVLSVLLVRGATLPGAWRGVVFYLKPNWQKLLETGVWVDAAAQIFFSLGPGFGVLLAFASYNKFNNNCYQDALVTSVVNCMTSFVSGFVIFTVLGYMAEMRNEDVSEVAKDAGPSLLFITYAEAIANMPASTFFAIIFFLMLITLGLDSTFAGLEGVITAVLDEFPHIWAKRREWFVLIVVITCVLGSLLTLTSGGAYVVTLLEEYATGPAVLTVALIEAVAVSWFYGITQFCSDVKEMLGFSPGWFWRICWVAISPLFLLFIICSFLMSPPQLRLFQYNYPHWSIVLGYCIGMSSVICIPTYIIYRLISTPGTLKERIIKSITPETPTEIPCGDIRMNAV

Row | Structure (SMILES) | melting point | IC50 (5-HT7 receptor) | IC50 (5-HT uptake)
1 | O=C1Nc2ccccc2C1CCCCN1CC=C(c2ccccc2)CC1 (centres unmarked) | 121 to 126 °C | – | –
2 | O=C1Nc2cc(F)ccc2C1CCCCN1CC=C(c2cccc(C(F)(F)F)c2)CC1 (centres unmarked) (as salt: hydrochloride) [Example 12, 6-Fluoro-3-{4-[4-(3-trifluoromethyl-phenyl)-1,2,3,6-tetrahydropyridin-1-yl]-butyl}-1,3-dihydro-2H-indol-2-one monohydrochloride] | 203 to 205 °C | – | –
3 | O=C1Nc2ccc(F)cc2C1CCCCN1CC=C(c2cccc(C(F)(F)F)c2)CC1 (centres unmarked) (as salt: hydrochloride) [Example 14, 5-Fluoro-3-{4-[4-(3-trifluoromethyl-phenyl)-1,2,3,6-tetrahydropyridin-1-yl]-butyl}-1,3-dihydro-2H-indol-2-one monohydrochloride] | 201 to 204 °C | – | –
4 | O=C1Nc2ccccc2C1CCCCN1CC=C(c2cccc(C(F)(F)F)c2)CC1 (centres unmarked) (as salt: oxalate) [Example 5, 3-{4-[4-(3-Trifluoromethyl-phenyl)-1,2,3,6-tetrahydropyridin-1-yl]-butyl}-1,3-dihydro-2H-indol-2-one monooxalate] | 159 to 161 °C | – | –
5 | O=C1Nc2ccccc2C1CCCCN1CCc2sccc2C1 (centres unmarked) (as salt: oxalate) [Example 6, 3-[4-(6,7-Dihydro-4H-thieno[3,2-c]pyridin-5-yl)-butyl]-1,3-dihydro-2H-indol-2-one monooxalate] | 168 to 170 °C | – | –
6 | O=C1Nc2ccccc2C1CCCCN1CC=C(c2cccc(C(F)(F)F)c2)CC1 (centres unmarked) [Example 5, 3-{4-[4-(3-Trifluoromethyl-phenyl)-1,2,3,6-tetrahydropyridin-1-yl]-butyl}-1,3-dihydro-2H-indol-2-one monooxalate] | – | < 100 nM | –
7 | O=C1Nc2ccccc2C1CCCCN1CCc2sccc2C1 (centres unmarked) [Example 6, 3-[4-(6,7-Dihydro-4H-thieno[3,2-c]pyridin-5-yl)-butyl]-1,3-dihydro-2H-indol-2-one monooxalate] | – | < 100 nM | –
8 | O=C1Nc2cc(F)ccc2C1CCCCN1CC=C(c2cccc(C(F)(F)F)c2)CC1 (centres unmarked) [Example 12, 6-Fluoro-3-{4-[4-(3-trifluoromethyl-phenyl)-1,2,3,6-tetrahydropyridin-1-yl]-butyl}-1,3-dihydro-2H-indol-2-one monohydrochloride] | – | < 100 nM | –
9 | O=C1Nc2ccccc2C1CCCCN1CC=C(c2ccc(Cl)cc2)CC1 (centres unmarked) [Example 13, 3-{4-[4-(4-Chlorophenyl)-1,2,3,6-tetrahydro-pyridin-1-yl]-butyl}-1,3-dihydro-2H-indol-2-one] | 122 to 124 °C | < 100 nM | < 100 nM
10 | O=C1Nc2ccc(F)cc2C1CCCCN1CC=C(c2cccc(C(F)(F)F)c2)CC1 (centres unmarked) [Example 14, 5-Fluoro-3-{4-[4-(3-trifluoromethyl-phenyl)-1,2,3,6-tetrahydropyridin-1-yl]-butyl}-1,3-dihydro-2H-indol-2-one monohydrochloride] | – | < 100 nM | < 100 nM

Continued, in another order:

Row | melting point | IC50 (5-HT7 receptor) | Structure (SMILES) | IC50 (5-HT uptake)
11 | 192 to 194 °C | – | O=C1Nc2ccc(F)cc2C1CCCCN1CCc2sccc2C1 (centres unmarked) (as salt: hydrochloride) [Example 7, 3-[4-(6,7-Dihydro-4H-thieno[3,2-c]pyridin-5-yl)-butyl]-5-fluoro-1,3-dihydro-2H-indol-2-one monohydrochloride] | –
12 | 103 to 106 °C | – | O=C1Nc2ccccc2C1CCCCN1CCc2sc(Cl)cc2C1 (centres unmarked) (as salt: hydrochloride) [Example 8, 3-[4-(2-Chloro-6,7-dihydro-4H-thieno[3,2-c]-pyridin-5-yl)-butyl]-1,3-dihydro-2H-indol-2-one monohydrochloride] | –
13 | 194 to 197 °C | – | O=C1Nc2cc(F)ccc2C1CCCCN1CCc2sccc2C1 (centres unmarked) (as salt: hydrochloride) [Example 9, 3-[4-(6,7-Dihydro-4H-thieno[3,2-c]pyridin-5-yl)-butyl]-6-fluoro-1,3-dihydro-2H-indol-2-one mono-hydrochloride] | –
14 | 214 to 216 °C | – | O=C1Nc2cc(F)ccc2C1CCCCN1CCc2sc(Cl)cc2C1 (centres unmarked) (as salt: hydrochloride) [Example 10, 3-[4-(2-Chloro-6,7-dihydro-4H-thieno[3,2-c]-pyridin-5-yl)-butyl]-6-fluoro-1,3-dihydro-2H-indol-2-one monohydrochloride] | –
15 | 161 to 163 °C | – | O=C1Nc2ccc(F)cc2C1CCCCN1CCc2sc(Cl)cc2C1 (centres unmarked) (as salt: hydrochloride) [Example 11, 3-[4-(2-Chloro-6,7-dihydro-4H-thieno[3,2-c]-pyridin-5-yl)-butyl]-5-fluoro-1,3-dihydro-2H-indol-2-one monohydrochloride] | –
16 | – | < 100 nM | O=C1Nc2ccc(F)cc2C1CCCCN1CCc2sccc2C1 (centres unmarked) [Example 7, 3-[4-(6,7-Dihydro-4H-thieno[3,2-c]pyridin-5-yl)-butyl]-5-fluoro-1,3-dihydro-2H-indol-2-one monohydrochloride] | –
17 | – | < 100 nM | O=C1Nc2ccccc2C1CCCCN1CCc2sc(Cl)cc2C1 (centres unmarked) [Example 8, 3-[4-(2-Chloro-6,7-dihydro-4H-thieno[3,2-c]-pyridin-5-yl)-butyl]-1,3-dihydro-2H-indol-2-one monohydrochloride] | –
18 | – | < 100 nM | O=C1Nc2cc(F)ccc2C1CCCCN1CCc2sccc2C1 (centres unmarked) [Example 9, 3-[4-(6,7-Dihydro-4H-thieno[3,2-c]pyridin-5-yl)-butyl]-6-fluoro-1,3-dihydro-2H-indol-2-one mono-hydrochloride] | –
19 | – | < 100 nM | O=C1Nc2cc(F)ccc2C1CCCCN1CCc2sc(Cl)cc2C1 (centres unmarked) [Example 10, 3-[4-(2-Chloro-6,7-dihydro-4H-thieno[3,2-c]-pyridin-5-yl)-butyl]-6-fluoro-1,3-dihydro-2H-indol-2-one monohydrochloride] | –
20 | – | < 100 nM | O=C1Nc2ccc(F)cc2C1CCCCN1CCc2sc(Cl)cc2C1 (centres unmarked) [Example 11, 3-[4-(2-Chloro-6,7-dihydro-4H-thieno[3,2-c]-pyridin-5-yl)-butyl]-5-fluoro-1,3-dihydro-2H-indol-2-one monohydrochloride] | –
